From patent publication US20240425529A1, “BORIC ACID DERIVATIVE” (SHOUYAO HOLDINGS (BEIJING) CO., LTD., priority 2021, published 2024)

Key:
LMP7 [1] = target: T1, LMP7 (Homo sapiens, UniProt P28062); test: Enzymatic inhibitory activity on LMP7 (MOLT-4 cell lysate, Ac-ANW-AMC substrate); assay type: biochemical; settings: 1 hour pre-incubation
T1 construct: using MOLT-4 cell lysate as the enzyme source of LMP7; endogenous in cells; host or cells: MOLT-4 (human acute lymphoblastic leukemia cells)
Text: LMP7 is a catalytic subunit of immunoproteasomes. In this experiment, an enzymatic detection platform was established using its hydrolytic enzyme activity and used for compound activity detection. Using Ac-ANW-AMC (Bonston Biochem, Cat #S-320) as a substrate for LMP7, the amount of fluorescent group AMC (7-amino-4-methylcoumarin) released after hydrolysis can reflect the enzymatic activity. MOLT-4 cells are human acute lymphoblastic leukemia cells and have been identified as cells with high expression of LMP7. We established an enzymatic detection method for compound inhibition on LMP7 using MOLT-4 cell lysate as the enzyme source of LMP7 and detected the compound inhibitory activity (half inhibitory concentration, IC50).
(§1) MOLT-4 cells were cultured in a 75 cm^2 cell culture flask (Corning) (37° C., 95% air, and 5% CO2) with RPMI-1640 (Biological Industries) medium containing 10% fetal bovine serum (Biological Industries) and 1% Pen Strep (Gibco) and passaged 2-3 times one week. 1×10^7 MOLT-4 cells were collected, resuspended in 1 ml of PBS (Solarbio), and centrifuged at 3000 rpm for 5 minutes. The supernatant was aspirated off. The cells were resuspended in 500 μl of lysis buffer (20 mM Tris, pH 8.0, 5 mM EDTA, plus Protease inhibitor (1:1000) and Phosphatase Inhibitor (1:100) when used) and left on ice for 30 minutes. The cells were broken by supersonic technique, 0.5 S on, 0.5 S off, for 2.5 S. The centrifuge was performed at 12000 rpm, 4° C. for 10 minutes. The supernatant was the cell lysate and protein quantification was performed by using the BCA method (Thermo, #23225).
Compounds were diluted in a 5-fold gradient with 100% DMSO for a total of 9 concentrations: 2 W for each concentration was added to a 48-μl reaction buffer (20 mM Tris, pH 8.0, 0.5 mM EDTA) and mixed well as 4* compound (final concentrations: 2000, 400, 80, 16, 3.2, 0.64, 0.128, 0.0256, and 0 nM) for later use. A reaction buffer was used to prepare 4* MOLT-4 cell lysate at a final concentration of 20 ng/μl and 2*Ac-ANW-AMC at a final concentration of 100 µM. 5 μl of 4* compound was added to a 384-well plate (OptiPlate-384, purchased from PerkinElmer), added with 5 W of 4* cell lysate, centrifuged, and reacted in an incubator at 23° C. for 1 hour. 10 W of 2* Ac-ANW-AMC was added and the reaction was started by centrifugation at 23° C. in the dark for 2 hours. After completion of the reaction, the signal value (excitation wavelength 345 nm/emission wavelength 445 nm) was read on the CLARIO star^Plus (purchased from BMG LRBTECH). Enzyme activity was determined at 9 concentrations for each compound, and data were processed using the GraphPad Prism software to calculate the half inhibitory concentration of the compound on LMP7, i.e. the IC50 value.

β5 = target: T2, β5 (Homo sapiens, UniProt P28074); test: Enzymatic inhibitory activity on β5 (HEK-293 cell lysate, Ac-WLA-AMC substrate); assay type: biochemical; settings: 1 hour pre-incubation
T2 construct: using HEK-293 cell lysate as the enzyme source of D5; endogenous in cells; host or cells: HEK-293 (human embryonic kidney cells)
Text: β5 is a catalytic subunit of immunoproteasomes. In this experiment, an enzymatic detection platform was established using its hydrolytic enzyme activity and used for compound activity detection. Using Ac-WLA-AMC (Bonston Biochem, Cat #5-330) as a substrate for D5, the amount of fluorescent group AMC (7-amino-4-methylcoumarin) released after hydrolysis can reflect the enzymatic activity. […] We established an enzymatic detection method for compound inhibition on D5 using HEK-293 cell lysate as the enzyme source of D5 and detected the compound inhibitory activity (half inhibitory concentration, IC50). The enzymatic inhibitory activity of compounds against D5 was used as a measure index of compound selectivity.
as §1, with “HEK-293” for “MOLT-4”, “DMEM” for “RPMI-1640”, “performed” for “performed by”
Compounds were diluted in a 5-fold gradient with 100% DMSO for a total of 9 concentrations. 2 W for each concentration was added to a 48-μl reaction buffer (20 mM Tris, pH 8.0, 0.5 mM EDTA) and mixed well as 4* compound (final concentrations: 100000, 20000, 4000, 800, 160, 32, 6.4, 1.28, and 0 nM) for later use. A reaction buffer was used to prepare 4*HEK-293 cell lysate at a final concentration of 25 ng/μl and 2*Ac-WLA-AMC at a final concentration of 20 μM. 5 W of 4* compound was added to a 384-well plate (OptiPlate-384, purchased from PerkinElmer), added with 5 W of 4*HEK-293 cell lysate, centrifuged, and reacted in an incubator at 23° C. for 1 hour. 10 W of 2* Ac-WLA-AMC was added and the reaction was started by centrifugation at 23° C. in the dark for 2 hours. After completion of the reaction, the signal value (excitation wavelength 345 nm/emission wavelength 445 nm) was read on the CLARIO star^Plus (purchased from BMG LRBTECH). Enzyme activity was determined at 9 concentrations for each compound, and data were processed using the GraphPad Prism software to calculate the half inhibitory concentration of the compound on D5, i.e. the IC50 value.

LMP7 [2] = target: T1, LMP7; test: Cytological inhibitory activity on LMP7 in MOLT-4 cells; assay type: cell-based; settings: incubation for 2 hours with compound, read-out: Cytological activity data LMP7 Activity (MOLT-4Cell)
Description: MOLT-4 are human acute lymphoblastic leukemia cells and have been identified as cells with high expression of LMP7. In this experiment, the compounds were pre-incubated with MOLT-4, and Ac-ANW-AMC (BonstonBiochem, Cat #S-320) was used as the substrate of LMP7 to establish the detection method for the enzymatic activity of LMP7 in cells and detect the compound inhibitory activity (half inhibitory concentration, IC50).
Cells were plated in a 24-well plate (Corning) at a concentration of 1.5×10^5/ml per well. The next day compounds were prepared and diluted in a 5-fold gradient from 2 mM in 100% DMSO for a total of 8 concentrations. 2 μl for each concentration of the compound was added to a 1-ml cell culture medium, supplemented with 1 ml of RPMI-1640 only (final FBS concentration 5%, v/v). The compounds were mixed with the cells. After incubation for 2 hours in the incubator, the cells were centrifuged at 2000 rpm for 8 minutes to discard the supernatant. The cells were washed once with 2 ml PBS (Solarbio), and centrifuged again to discard the supernatant. The cells were resuspended in 100 μl of lysis buffer (20 mM Tris, pH 8.0, 5 mM EDTA, plus Protease inhibitor (1: 100) and Phosphatase Inhibitor (1:100) when used) and left in a 4° C. refrigerator for 45 minutes.
After 2 min. of centrifuge at 2000 rpm, the lysate was transferred from the 24-well plate to a 96-well plate, and centrifuged at 2000 rpm, 4° C., for 15 min. The supernatant was the lysate. Protein quantification was performed using the BCA method (Thermo, #23225). A 2* lysate was prepared with the reaction buffer (20 mM Tris, pH 8.0, 0.5 mM EDTA) at a final concentration of 20 ng/μl. 2* Ac-ANW-AMC was prepared with the reaction buffer at a final concentration of 100 μM. 10 µl of 2* lysate was added to a 384-well plate (OptiPlate-384, purchased from PerkinElmer), and added with 10 W of 2* Ac-ANW-AMC. The reaction was started by centrifugation at 23° C. in the dark for 1 hour. After completion of the reaction, the signal value (excitation wavelength 345 nm/emission wavelength 445 nm) was read on the CLARIO starPlus (purchased from BMG LRBTECH). Enzyme activity was determined at 8 concentrations for each compound, and data were processed using the GraphPad Prism software to calculate the half inhibitory concentration of the compound on LMP7 hydrolase in MOLT-4 cells, i.e. the IC50 value.

Row | IC50 (LMP7 [1]) | IC50 (β5) | IC50 (LMP7 [2]) | Structure (SMILES)
1 | 7.3 nM | 123 nM |  | O=C(NC1CCOCC1)C(=O)N[C@@H](Cc1coc2ccccc12)B(O)O [Ex. 11, (R)-(2-(benzofuran-3-yl)-1-(2-oxo-2-((tetrahydro-2H-pyran-4-yl)amino)acetamido)ethyl)boronic acid]
2 | 2.91 nM | 72.5 nM | 11 nM | Cc1csc(NC(=O)C(=O)N[C@@H](Cc2coc3ccccc23)B(O)O)n1 [Ex. 31, (R)-(2-(benzofuran-3-yl)-1-(2-oxo-2-((4-methylthiazol-2-yl)amino)acetamido)ethyl)boronic acid]
3 | 24.7 nM |  |  | C[C@@H](NC(=O)C(=O)N[C@@H](Cc1coc2ccccc12)B(O)O)c1ccccn1 [Ex. 8, ((R)-2-(benzofuran-3-yl)-1-(2-oxo-2-(((R)-1-(pyridin-2-yl)ethyl)amino)acetamido)ethyl)boronic acid]
4 | 7.89 nM | 1300 nM | 26.7 nM | COC(=O)C(=O)N[C@@H](Cc1coc2ccccc12)B(O)O [Ex. 62, (R)-(2-(benzofuran-3-yl)-1-(2-oxo-2-methoxyacetamido)ethyl)boronic acid]
5 | 3.57 nM | 22.2 nM | 1.83 nM | O=C(NCC1CCCO1)C(=O)N[C@@H](Cc1coc2ccccc12)B(O)O (stereo partly drawn) [Ex. 22, (R)-(2-(benzofuran-3-yl)-1-(2-(((tetrahydrofuran-2-yl)methyl)amino)-2-oxoacetamido)ethyl)boronic acid]
6 | 7.7 nM | 123 nM |  | O=C(N[C@H]1CCOC1)C(=O)N[C@@H](Cc1coc2ccccc12)B(O)O [Ex. 7, ((R)-2-(benzofuran-3-yl)-1-(2-oxo-2(((S)-tetrahydrofuran-3-yl)amino)acetamido)ethyl) boronic acid]

Second part, the compound before the results:

Row | Structure (SMILES) | IC50 (LMP7 [1]) | IC50 (β5) | IC50 (LMP7 [2])
7 | CNC(=O)C(=O)N[C@@H](Cc1coc2ccccc12)B(O)O [Ex. 2, (R)-(2-(benzofuran-3-yl)-1-(2-(methylamino)-2-oxoacetamido)ethyl)boronic acid] | 26.9 nM |  | 
8 | Cn1ccnc1NC(=O)C(=O)N[C@@H](Cc1coc2ccccc12)B(O)O [Ex. 37, (R)-(2-(benzofuran-3-yl)-1-(2-oxo-2-((1-methyl-1H-imidazol-2-yl)amino)acetamido)ethyl)boronic acid] | 5.93 nM | 264 nM | 111 nM
9 | O=C1CC[C@H](N2C(=O)c3ccc(N4CCN(CC5CCN(C(=O)C(=O)N[C@@H](Cc6coc7ccccc67)B(O)O)CC5)CC4)cc3C2=O)C(=O)N1 [Ex. 16, ((R)-2-(benzofuran-3-yl)-1-(2-(4-((4-(2-((S)-2,6-dioxopiperidin-3-yl)-1,3-dioxoisoindolin-5-yl)piperazin-1-yl)methyl)piperidin-1-yl)-2-oxoacetamido)ethyl)boronic acid] | 32.9 nM | 58.7 nM | 
10 | CC1(C)[C@@H]2C[C@H]3OB([C@H](Cc4coc5ccccc45)NC(=O)C(=O)Nc4ncc(F)s4)O[C@@]3(C)[C@H]1C2 [Ex. 33, (R)-(2-(benzofuran-3-yl)-1-(2-oxo-2-((5-fluorothiazol-2-yl)amino)acetamido)ethyl)boronic acid (1S,2S,3R,5S)-(+)-pinane-2,3-diol ester] | 3.08 nM | 39 nM | 9.5 nM
11 | C[C@@H]1COB([C@H](Cc2coc3ccccc23)NC(=O)C(=O)Nc2cnccn2)O1 [Ex. 69] | 1.44 nM | 18.2 nM | 0.88 nM
12 | O=C(Nc1cnc2ccccc2n1)C(=O)N[C@@H](Cc1coc2ccccc12)B(O)O [Ex. 47, (R)-(2-(benzofuran-3-yl)-1-(2-oxo-2-(quinoxalin-2-ylamino)acetamido)ethyl) boronic acid] | 3.1 nM | 43.5 nM | 2.32 nM
13 | CON(C)C(=O)C(=O)N[C@@H](Cc1coc2ccccc12)B(O)O [Ex. 3, (R)-(2-(benzofuran-3-yl)-1-(2-(methoxy(methyl)amino)-2-oxoacetamido)ethyl) boronic acid] | 13 nM | 507 nM | 
14 | CCN(CC)C(=O)C(=O)N[C@@H](Cc1coc2ccccc12)B(O)O [Ex. 4, (R)-(2-(benzofuran-3-yl)-1-(2-(diethylamino)-2-oxoacetamido)ethyl)boronic acid] | 22.3 nM |  | 
15 | CN(C)C(=O)C(=O)N[C@@H](Cc1coc2ccccc12)B(O)O [Ex. 6, (R)-(2-(benzofuran-3-yl)-1-(2-(dimethylamino)-2-oxoacetamido)ethyl)boronic acid] | 28.5 nM |  | 
